Where “and” joins values, the source holds several entries; their conditions need not be identical. Equal entries are not always repeated. Calls of active or inactive are those of the source.
How the values were obtained:
[1] = tested on: Pseudomonas aeruginosa; test: microbe, parasite or virus in culture; conditions: BA
Description: Antimicrobial activity against Pseudomonas aeruginosa BA harboring beta-lactamase Class C by broth dilution method

[2] = tested on: Klebsiella oxytoca; test: Antimicrobial activity against Klebsiella oxytoca 1028E harboring beta-lactamase K1 by broth dilution method; format: functional
[3] = tested on: Pseudomonas aeruginosa; test: Antimicrobial activity against Pseudomonas aeruginosa HPA996 harboring beta-lactamase VIM-2 by broth dilution method; format: functional
[4] = tested on: Pseudomonas aeruginosa; test: Antimicrobial activity against Pseudomonas aeruginosa B4 by broth dilution method; format: functional
[5] = tested on: Pseudomonas aeruginosa; test: Antimicrobial activity against fpvA, fpvB, fptA and pirA gene deficient Pseudomonas aeruginosa 860 by broth dilution method; format: functional
[6] = tested on: Pseudomonas aeruginosa; test: Antimicrobial activity against Pseudomonas aeruginosa BA(C1-106) selected after 25 ug/ml of compound exposure by broth dilution method; format: functional
[7] = tested on: Escherichia coli; test: Antimicrobial activity against Escherichia coli by broth dilution method; format: functional
[8] = tested on: Stenotrophomonas maltophilia; test: Antimicrobial activity against Stenotrophomonas maltophilia 1AC736 assessed as number of passages required for MIC to rise above 4 times original MIC; format: functional
[9] = tested on: Acinetobacter baumannii; test: Antimicrobial activity against Acinetobacter baumannii HPA74510 assessed as appearance of colony at 4 times MIC concentration; format: functional, organism-based
[10] = tested on: Pseudomonas aeruginosa; test: Antimicrobial activity against Pseudomonas aeruginosa BA assessed as number of passages required for MIC to rise above 4 times original MIC; format: functional
[11] = tested on: Serratia marcescens; test: Antimicrobial activity against Serratia marcescens S6 harboring beta-lactamase SME-1.AmpC by broth dilution method; format: functional
[12] = tested on: Serratia marcescens; test: Antimicrobial activity against Serratia marcescens 1T9 harboring beta-lactamase Class C by broth dilution method; format: functional
[13] = tested on: Klebsiella pneumoniae; test: Antimicrobial activity against Klebsiella pneumoniae 1357E harboring beta-lactamase TEM-10 by broth dilution method; format: functional
[14] = tested on: Pseudomonas aeruginosa; test: microbe, parasite or virus in culture; conditions: 18S/H
Description: Antimicrobial activity against Pseudomonas aeruginosa 18S/H harboring beta-lactamase Class C by broth dilution method

[15] = tested on: Pseudomonas aeruginosa; test: Antimicrobial activity against mexAB-oprM protein and mexCD-oprJ deficient Pseudomonas aeruginosa PAO238 by broth dilution method; format: functional
[16] = tested on: Pseudomonas aeruginosa; test: Antimicrobial activity against fpvA deficient Pseudomonas aeruginosa (560546)9 M.P. by broth dilution method; format: functional
[17] = tested on: Acinetobacter baumannii; test: Antimicrobial activity against Acinetobacter baumannii HPA 4737 harboring beta-lactamase OXA-26 by broth dilution method; format: functional
[18] = tested on: Citrobacter freundii; test: Antimicrobial activity against Citrobacter freundii by broth dilution method; format: functional
[19] = tested on: Proteus mirabilis; test: Antimicrobial activity against Proteus mirabilis by broth dilution method; format: functional
[20] = tested on: Providencia rettgeri; test: Antimicrobial activity against Providencia rettgeri J96 harboring beta-lactamase IMP-1 by broth dilution method; format: functional
[21] = tested on: Acinetobacter sp.; test: Antimicrobial activity against Acinetobacter sp. by broth dilution method; format: functional
[22] = tested on: Enterobacter cloacae; test: Antimicrobial activity against Enterobacter cloacae S4741B assessed as number of passages required for MIC to rise above 4 times original MIC; format: functional
[23] = tested on: Acinetobacter baumannii; test: Antimicrobial activity against Acinetobacter baumannii HPA 327009 harboring beta-lactamase OXA-25 by broth dilution method; format: functional
[24] = tested on: Klebsiella aerogenes; test: Antimicrobial activity against Enterobacter aerogenes by broth dilution method; format: functional
[25] = tested on: Escherichia coli; test: Antimicrobial activity against Escherichia coli A harboring beta-lactamase CTX-M 15 by broth dilution method; format: functional
[26] = tested on: Klebsiella pneumoniae; test: Antimicrobial activity against Klebsiella pneumoniae 26768WU harboring beta-lactamase SHV-5 by broth dilution method; format: functional
[27] = tested on: Pseudomonas aeruginosa; test: Antimicrobial activity against Pseudomonas aeruginosa 527 assessed as number of passages required for MIC to rise above 4 times original MIC; format: functional
[28] = tested on: Stenotrophomonas maltophilia; test: Antimicrobial activity against Stenotrophomonas maltophilia by broth dilution method; format: functional
[29] = tested on: Pseudomonas aeruginosa; test: Antimicrobial activity against Pseudomonas aeruginosa 860 assessed as appearance of colony at 4 times MIC concentration; format: functional
[30] = tested on: Pseudomonas aeruginosa; test: Antimicrobial activity against mexAB-oprM, mexCD-oprJ, mexEF-oprN, mexJK, mexXY, opmH and pscC gene deficient Pseudomonas aeruginosa PAO750 by broth dilution method; format: functional
[31] = tested on: Acinetobacter baumannii; test: Antimicrobial activity against Acinetobacter baumannii HPA I-16 harboring beta-lactamase OXA-27 by broth dilution method; format: functional
[32] = tested on: Enterobacter cloacae; test: Antimicrobial activity against Enterobacter cloacae 908R harboring beta-lactamase AmpC by broth dilution method; format: functional
[33] = tested on: Pseudomonas aeruginosa; test: Antimicrobial activity against Pseudomonas aeruginosa HPA101-1477 harboring beta-lactamase IMP-1 by broth dilution method; format: functional
[34] = tested on: Pseudomonas aeruginosa; test: Antimicrobial activity against Pseudomonas aeruginosa by broth dilution method; format: functional
[35] = tested on: Pseudomonas aeruginosa; test: Antimicrobial activity against Pseudomonas aeruginosa 621 assessed as appearance of colony at 4 times MIC concentration; format: functional
[36] = tested on: Serratia marcescens; test: Antimicrobial activity against Serratia marcescens by broth dilution method; format: functional
[37] = tested on: Enterobacter cloacae; test: Antimicrobial activity against Enterobacter cloacae S9369 assessed as number of passages required for MIC to rise above 4 times original MIC; format: functional
[38] = tested on: Pseudomonas aeruginosa; test: Antimicrobial activity against Pseudomonas aeruginosa BA(C2-107) selected after 25 ug/ml of compound exposure by broth dilution method; format: functional
[39] = tested on: Pseudomonas aeruginosa; test: Antimicrobial activity against Pseudomonas aeruginosa BA assessed as appearance of colony at 4 times MIC concentration; format: functional
[40] = tested on: Pseudomonas aeruginosa; test: Antimicrobial activity against mexAB-oprM protein and mexCD-oprJ deficient Pseudomonas aeruginosa PAO253 overexpressing MexEF-OprN gene by broth dilution method; format: functional
[41] = tested on: Burkholderia sp.; test: Antimicrobial activity against Burkholderia sp. by broth dilution method; format: functional
[42] = tested on: Pseudomonas aeruginosa; test: Antimicrobial activity against mexAB-oprM protein and mexZ deficient Pseudomonas aeruginosa PAO267 by broth dilution method; format: functional
[43] = tested on: Klebsiella oxytoca; test: Antimicrobial activity against Klebsiella oxytoca by broth dilution method; format: functional
[44] = tested on: Proteus penneri; test: Antimicrobial activity against Proteus penneri by broth dilution method; format: functional
[45] = tested on: Pseudomonas aeruginosa; test: Antimicrobial activity against oprD protein deficient Pseudomonas aeruginosa C2 by broth dilution method; format: functional
[46] = tested on: Klebsiella pneumoniae; test: Antimicrobial activity against Klebsiella pneumoniae YC harboring beta-lactamase KPC-2,TEM-1and SHV-2 by broth dilution method; format: functional
[47] = tested on: Pseudomonas aeruginosa; test: Antimicrobial activity against Pseudomonas aeruginosa 1937E harboring beta-lactamase PSE-4 and class C enzymes by broth dilution method; format: functional
[48] = tested on: Acinetobacter junii; test: Antimicrobial activity against Acinetobacter junii 15218 assessed as number of passages required for MIC to rise above 4 times original MIC; format: functional
[49] = tested on: Klebsiella pneumoniae; test: Antimicrobial activity against Klebsiella pneumoniae by broth dilution method; format: functional
[50] = tested on: Stenotrophomonas maltophilia; test: Antimicrobial activity against Stenotrophomonas maltophilia B715 harboring beta-lactamase L1and L2 by broth dilution method; format: functional
[51] = tested on: Klebsiella pneumoniae; test: Antimicrobial activity against Klebsiella pneumoniae 1338665 assessed as appearance of colony at 4 times MIC concentration; format: functional, organism-based
[52] = tested on: Pseudomonas aeruginosa; test: Antimicrobial activity against Pseudomonas aeruginosa 1973E harboring beta-lactamase PSE-1 and class C enzymes by broth dilution method; format: functional

CC1(C)[C@H](NC(=O)/C(=N\OCc2cc(=O)c(O)cn2O)c2csc(N)n2)C(=O)N1OS(=O)(=O)O (stereo in doubt)
20 passages: Activity [48]
2.8 frequency and 2.5 frequency: Activity [35]
> 32 µg/mL: MIC90 [7] | MIC [26] | MIC [46] | MIC90 [49]
8 µg/mL: MIC [17] | MIC90 [34] | MIC [38]
≤ 0.06 µg/mL: MIC [11] | MIC [19] | MIC50 [19] | MIC [30] | MIC [41] | MIC50 [41] | MIC [42] | MIC [44] | MIC50 [44]
0.25 µg/mL: MIC90 [19] | MIC90 [44] | MIC [45] | MIC [50]
2 µg/mL: MIC [14] | MIC90 [28] | MIC [33] | MIC50 [34] | MIC50 [36] | MIC [47]
7 frequency: Activity [29]
5 passages: Activity [10]
2.1 frequency: Activity ([39]; record 2)
9 passages: Activity [22] | Activity [27]
0.125 µg/mL: MIC [15] | MIC [20] | MIC [25] | MIC90 [41] | MIC50 [43]
active: Activity [9] | Activity [39] | Activity [51]
1 µg/mL: MIC [3] | MIC [5] | MIC50 [7] | MIC [12] | MIC [16]
8 passages: Activity [37]
0.5 µg/mL: MIC [1] | MIC [2] | MIC [4] | MIC50 [21] | MIC50 [24] | MIC50 [28] | MIC [31] | MIC [40]
4 passages: Activity [8]
4 µg/mL: MIC [13] | MIC50 [18] | MIC90 [21] | MIC [23] | MIC [32] | MIC90 [36] | MIC90 [43] | MIC [52]
16 µg/mL: MIC [6] | MIC90 [18] | MIC90 [24] | MIC50 [49]

C[C@@H](O)[C@H]1C(=O)N2C(C(=O)O)=C(S[C@@H]3CN[C@H](C(=O)N(C)C)C3)[C@H](C)[C@H]12 [MEROPENEM]
16 µg/mL: MIC90 [49]
8 µg/mL: MIC50 [28]
≤ 0.06 µg/mL: MIC [4] | MIC50 [7] | MIC [13] | MIC [18] | MIC50 [18] | MIC [26] | MIC50 [43] | MIC50 [49]
0.5 µg/mL: MIC90 [7] | MIC [15] | MIC90 [19] | MIC [30] | MIC [40] | MIC90 [44]
1 µg/mL: MIC [1] | MIC [5] | MIC [6] | MIC50 [21] | MIC90 [43] | MIC [45] | MIC [47]
32 µg/mL: MIC [3] | MIC [11]
4 µg/mL: MIC90 [24] | MIC50 [34] | MIC90 [36] | MIC90 [41] | MIC [52]
1 frequency: Activity [29] | Activity [35] | Activity [39]
> 32 µg/mL: MIC [17] | MIC [20] | MIC90 [21] | MIC [23] | MIC90 [28] | MIC [31] | MIC [33] | MIC90 [34] | MIC [46] | MIC [50]
3 passages: Activity [10] | Activity [27]
2 µg/mL: MIC [14] | MIC [16] | MIC [38] | MIC50 [41]
9 passages: Activity [37] | Activity [48]
0.25 µg/mL: MIC90 [18] | MIC50 [24]
0.125 µg/mL: MIC [2] | MIC [12] | MIC50 [19] | MIC [25] | MIC [32] | MIC50 [36] | MIC [42] | MIC50 [44]
7 passages: Activity [22]
inactive: Activity [8] | Activity [9] | Activity [51]
